Numbers after ± are expanded uncertainties.
Conditions: Liquid, Ebulliometric method (Recirculating still)

Row | SMILES | vapor or sublimation pressure (332.19 K) | vapor or sublimation pressure (346.26 K) | vapor or sublimation pressure (354.42 K) | vapor or sublimation pressure (362.18 K) | vapor or sublimation pressure (366.46 K) | vapor or sublimation pressure (371.63 K) | vapor or sublimation pressure (375.04 K) | vapor or sublimation pressure (378.75 K) | vapor or sublimation pressure (382.02 K) | vapor or sublimation pressure (366.97 K) | vapor or sublimation pressure (378.82 K) | vapor or sublimation pressure (387.59 K) | vapor or sublimation pressure (397.84 K) | vapor or sublimation pressure (403.31 K) | vapor or sublimation pressure (408.91 K) | vapor or sublimation pressure (413.59 K) | vapor or sublimation pressure (418.73 K) | vapor or sublimation pressure (422.25 K) | vapor or sublimation pressure (426.39 K)
1 | CSSC [2,3-dithiabutane] | 18.2 ± 0.4 kPa | 31.1 ± 0.4 kPa | 41.7 ± 0.4 kPa | 53.9 ± 0.4 kPa | 61.9 ± 0.4 kPa | 72.9 ± 0.4 kPa | 81.1 ± 0.4 kPa | 90.9 ± 0.4 kPa | 100.6 ± 0.5 kPa | – | – | – | – | – | – | – | – | – | –
2 | CCSSCC [3,4-dithiahexane] | – | – | – | – | – | – | – | – | – | 15.8 ± 0.4 kPa | 24.1 ± 0.4 kPa | 32.3 ± 0.4 kPa | 44.4 ± 0.4 kPa | 52.8 ± 0.4 kPa | 62.2 ± 0.4 kPa | 71.1 ± 0.4 kPa | 82.1 ± 0.4 kPa | 90.5 ± 0.4 kPa | 100.7 ± 0.4 kPa

Source: the NIST ThermoML archive (doi:10.1016/j.fluid.2010.02.043)
